1 compound from article PMC4381582, “RNA interference screening identifies a novel role for PCTK1/CDK16 in medulloblastoma with c-Myc amplification” (Oncotarget, 2014) can be followed below.

Structures are written as SMILES.

The target in the experiment is T1, PCTAIRE1 (PCTK1/CDK16) (Homo sapiens, UniProt Q00536).
T1 construct: recombinant GST-fusion or His-tagged protein from human cDNA, expressed in Sf9 insect cells or E. coli; with CycY (cyclin Y)
The experiment can be described thus: radiometric protein kinase assay ([…]PanQinase) with GSK3([…]-27) peptide substrate. Type of experiment: biochemical.

T1 sequence (Q00536 whole entry, the tested form may be a part): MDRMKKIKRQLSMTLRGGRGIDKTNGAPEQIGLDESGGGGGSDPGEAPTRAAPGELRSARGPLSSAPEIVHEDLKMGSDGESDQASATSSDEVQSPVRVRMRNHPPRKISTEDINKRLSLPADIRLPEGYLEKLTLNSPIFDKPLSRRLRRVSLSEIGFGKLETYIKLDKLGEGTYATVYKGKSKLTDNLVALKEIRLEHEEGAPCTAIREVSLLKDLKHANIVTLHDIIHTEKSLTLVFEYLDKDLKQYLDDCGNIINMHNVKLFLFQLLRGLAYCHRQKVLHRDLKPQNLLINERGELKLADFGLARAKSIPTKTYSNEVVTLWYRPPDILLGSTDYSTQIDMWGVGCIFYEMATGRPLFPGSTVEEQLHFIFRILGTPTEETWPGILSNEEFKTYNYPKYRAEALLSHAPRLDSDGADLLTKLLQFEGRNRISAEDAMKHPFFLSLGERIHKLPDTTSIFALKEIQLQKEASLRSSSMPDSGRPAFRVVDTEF
T1 sequence (Q8ND76 2-341 partner): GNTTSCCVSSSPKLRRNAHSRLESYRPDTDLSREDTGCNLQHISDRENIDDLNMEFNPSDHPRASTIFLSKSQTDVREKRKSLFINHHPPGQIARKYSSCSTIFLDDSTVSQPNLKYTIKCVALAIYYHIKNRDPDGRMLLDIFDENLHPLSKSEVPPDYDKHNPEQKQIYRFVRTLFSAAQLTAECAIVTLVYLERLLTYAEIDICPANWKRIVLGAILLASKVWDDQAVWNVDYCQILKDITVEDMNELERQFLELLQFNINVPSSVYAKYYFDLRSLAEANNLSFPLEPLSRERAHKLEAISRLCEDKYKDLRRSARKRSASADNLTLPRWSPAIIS

`O=C1Nc2ccccc2/C1=C1/Nc2ccccc2/C1=N\OCCC(O)CO` (stereo not shown) [indirubin E804] gave an IC50 of 53 nM.

As a reminder, the IC50 is the concentration needed to halve the response being measured.
